Experimental data: patent US9302999B2, “Substituted triazoles as herbicides” (E. I. DU PONT DE NEMOURS AND COMPANY, priority 2012, dated 2016)

Legend:
[1] = system: barnyardgrass (Echinochloa crus-galli); assay: Test C pre-/postemergence: barnyardgrass; format: in vivo; conditions: Preemergence, 250 g ai/ha; scale 0 to 100, 0 no effect, 100 complete control
Text: (§1) Seeds of plant species selected from blackgrass (Alopecurus myosuroides), bromegrass, downy (downy bromegrass, Bromus tectorum), foxtail, green (green foxtail, Setaria viridis), ryegrass, Italian (Italian ryegrass, Lolium multiflorum), winter wheat (Triticum aestivum), wild oat (Avena fatua), galium (catchweed bedstraw, Galium aparine), bermudagrass (Cynodon dactylon), surinam grass (Brachiaria decumbens), cocklebur (common cocklebur, Xanthium strumarium), corn (Zea mays), large crabgrass (Digitaria sanguinalis), woolly cupgrass (Eriochloa villosa), foxtail, giant (giant foxtail, Setaria faberii), goosegrass (Eleusine indica), johnsongrass (Sorghum halepense), kochia (Kochia scoparia), lambsquarters (Chenopodium album), morningglory (Ipomoea coccinea), nightshade (eastern black nightshade, Solanum ptycanthum), nutsedge, yellow (yellow nutsedge, Cyperus esculentus), pigweed (Amaranthus retroflexus), ragweed (common ragweed, Ambrosia elation), soybean (Glycine max), common (oilseed) sunflower (Helianthus annuus), Russian thistle (Salsola kali) and velvetleaf (Abutilon theophrasti) were planted into a blend of loam soil and sand and treated preemergence with test chemicals formulated in a non-phytotoxic solvent mixture which included a surfactant.
(§2) At the same time, plants selected from these crop and weed species and also barley (winter barley, Hordeum vulgare), canarygrass (Phalaris minor), chickweed (common chickweed, Stellaria media) windgrass (Apera spica-venti) and deadnettle (henbit deadnettle, Lamium amplexicaule) were planted in pots containing Redi-Earth® planting medium (Scotts Company, 14111 Scottslawn Road, Marysville, Ohio 43041) comprising spaghnum peat moss, vermiculite, wetting agent and starter nutrients and treated with postemergence applications of test chemicals formulated in the same manner. Plants ranged in height from 2 to 18 cm (1- to 4-leaf stage) for postemergence treatments.
(§3) Treated plants and controls were maintained in a greenhouse for 13 to 15 days, after which time all species were compared to controls and visually evaluated. Plant response ratings, summarized in Table C, are based on a scale of 0 to 100 where 0 is no effect and 100 is complete control. A dash (-) response means no test result.

Oilseed Rape [2] = assay: Test C preemergence: oilseed rape; format: in vivo, Brassica napus; conditions: 125 g ai/ha, scale 0 to 100, 0 no effect, 100 complete control
Oilseed Rape [3] = assay: Test C preemergence: oilseed rape; format: in vivo; conditions: scale of 0 to 100, 0 is no effect, 100 is complete control
Text: as §1, §3

Waterhemp [4] = assay: Test C pre-/postemergence: waterhemp; format: in vivo
Text: as §1, §2, §3

Barnyardgrass = assay: Test C postemergence: barnyardgrass; format: in vivo, Echinochloa crus-galli; conditions: 125 g ai/ha, scale 0 to 100, 0 no effect, 100 complete control
Text: as §1, §2, §3

Oilseed Rape [5] = assay: Test C postemergence: oilseed rape; format: in vivo, Brassica napus
Text: as §1, §2, §3

Waterhemp [6] = assay: Test C postemergence: waterhemp; format: in vivo
Text: as §2, §3

Waterhemp [7] = assay: Test C postemergence: waterhemp; format: in vivo, Amaranthus rudis
Text: as §1, §2, §3

[8] = system: bromegrass, downy (downy bromegrass, Bromus tectorum); assay: Test C pre-/postemergence: bromegrass, downy; format: in vivo
In short: (§4)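 Preemergence on seeds in loam/sand, postemergence on 2–18 cm (1–4-leaf) plants in peat-based medium; compounds in non-phytotoxic solvent with surfactant. After 13–15 days in greenhouse, visual rating versus controls, 0 (no effect) to 100 (complete control).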

[9] = system: foxtail, green (green foxtail, Setaria viridis); assay: Test C pre-/postemergence: foxtail, green; format: in vivo
In short: as §4

[10] = system: bermudagrass (Cynodon dactylon); assay: Test C pre-/postemergence: bermudagrass; format: in vivo
In short: as §4

[11] = system: surinam grass (Brachiaria decumbens); assay: Test C pre-/postemergence: surinam grass; format: in vivo
In short: as §4

[12] = system: woolly cupgrass (Eriochloa villosa); assay: Test C pre-/postemergence: woolly cupgrass; format: in vivo
In short: as §4

[13] = system: goosegrass (Eleusine indica); assay: Test C pre-/postemergence: goosegrass; format: in vivo
In short: as §4

[14] = system: nightshade (eastern black nightshade, Solanum ptycanthum); assay: Test C pre-/postemergence: nightshade; format: in vivo; conditions: Preemergence
In short: as §4

[15] = system: common (oilseed) sunflower (Helianthus annuus); assay: Test C pre-/postemergence: sunflower; format: in vivo; conditions: Preemergence
In short: as §4

[16] = system: canarygrass (Phalaris minor); assay: Test C postemergence: canarygrass; format: in vivo
In short: (§5)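 Visual 0–100 injury score vs untreated controls (0 none, 100 complete control), taken 13–15 d after treatment. Postemergence spray on potted plants, 2–18 cm, 1–4 leaves; greenhouse.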

[17] = system: windgrass (Apera spica-venti); assay: Test C postemergence: windgrass; format: in vivo
In short: as §5

[18] = system: deadnettle (henbit deadnettle, Lamium amplexicaule); assay: Test C postemergence: deadnettle; format: in vivo
In short: as §5

[19] = Preemergence, 250 g ai/ha, scale 0 to 100, 0 no effect, 100 complete control
[20] = 125 g ai/ha, scale 0 to 100, 0 no effect, 100 complete control
[21] = 31 g ai/ha, scale 0 to 100 (0 no effect, 100 complete control)
[22] = 62 g ai/ha, scale 0 to 100 (0 no effect, 100 complete control)
[23] = 250 g ai/ha, scale 0 to 100 (0 no effect, 100 complete control)
[24] = Postemergence, 31 g ai/ha, scale 0 to 100 (0 no effect, 100 complete control)
[25] = Postemergence, 62 g ai/ha, scale 0 to 100 (0 no effect, 100 complete control)
[26] = Postemergence, 125 g ai/ha, scale 0 to 100, 0 no effect, 100 complete control
[27] = Postemergence, 250 g ai/ha, scale 0 to 100
[28] = Preemergence, 31 g ai/ha, scale 0 (no effect) to 100 (complete control)
[29] = Preemergence, 62 g ai/ha, scale 0 to 100, 0 no effect, 100 complete control
[30] = Preemergence, 125 g ai/ha, scale 0 to 100, 0 no effect, 100 complete control
[31] = Postemergence, 250 g ai/ha, scale 0 to 100 (0 no effect, 100 complete control)
[32] = 31 g ai/ha, scale 0 (no effect) to 100 (complete control)
[33] = 62 g ai/ha, scale 0 to 100, 0 no effect, 100 complete control
[34] = 250 g ai/ha, scale 0 to 100, 0 no effect, 100 complete control

Structure (SMILES): CCOCc1nn(-c2ccc(F)cc2)nc1Oc1ccnc(C(F)(F)F)c1 [Compound 163]
- Plant response rating, Barnyardgrass [1]: 100
- Plant response rating, Oilseed Rape (Oilseed Rape [2]): 80
- Plant response rating, Oilseed Rape (Oilseed Rape [3]; 31 g ai/ha): 0
- Plant response rating, Oilseed Rape (Oilseed Rape [3]; 62 g ai/ha): 50
- Plant response rating, Waterhemp (Waterhemp [4]; [19]): 100

Structure (SMILES): CCOc1nn(-c2ccc(C(F)(F)F)cc2)nc1Cc1ccnc(C(F)(F)F)c1 [Compound 164, 4-[[5-ethoxy-2-[4-(trifluoromethyl)phenyl]-2H-1,2,3-triazol-4-yl]methyl]-2-(trifluoromethyl)pyridine]
- Plant response rating, Barnyardgrass (Barnyardgrass): 10
- Plant response rating, Oilseed Rape (Oilseed Rape [5]; [20]): 20
- Plant response rating, Waterhemp (Waterhemp [6]; [21]): 35
- Plant response rating, Waterhemp (Waterhemp [6]; [22]): 65
- Plant response rating, Waterhemp (Waterhemp [6]; 250 g ai/ha, scale 0 to 100): 75
- Plant response rating, Waterhemp (Waterhemp [7]; [20]): 65
- Plant response rating, Barnyardgrass [1]: 70
- Plant response rating, Oilseed Rape (Oilseed Rape [3]; 62 g ai/ha): 5

Structure (SMILES): CCCc1nn(-c2ccc(F)cc2)nc1Oc1ccnc(C(F)(F)F)c1 [Compound 168]
- Plant response rating, Barnyardgrass (Barnyardgrass): 90
- Plant response rating, Oilseed Rape (Oilseed Rape [5]; [20]): 90
- Plant response rating, Oilseed Rape (Oilseed Rape [5]; [23]): 95
- Plant response rating, Waterhemp (Waterhemp [6]; [22]): 90
- Plant response rating, Waterhemp (Waterhemp [7]; [20]): 95
- Plant response rating, Waterhemp (Waterhemp [7]; [23]): 95
- Plant response rating, Barnyardgrass [1]: 100
- Plant response rating, Oilseed Rape (Oilseed Rape [2]): 100
- Plant response rating, Oilseed Rape (Oilseed Rape [3]; 62 g ai/ha): 100
- Plant response rating, Waterhemp (Waterhemp [4]; [24]): 80

Structure (SMILES): CCOc1nn(-c2ccc(F)cc2)nc1Cc1ccnc(C(F)(F)F)c1 [Compound 196, 4-[[5-ethoxy-2-(4-fluorophenyl)-2H-1,2,3-triazol-4-yl]methyl]-2-(trifluoromethyl)pyridine]
- Plant response rating, Bromegrass, Downy [8, 24]: 50
- Plant response rating, Bromegrass, Downy [8, 25]: 50
- Plant response rating, Bromegrass, Downy [8, 26]: 70
- Plant response rating, Bromegrass, Downy [8, 27]: 80
- Plant response rating, Bromegrass, Downy [8, 28]: 60
- Plant response rating, Bromegrass, Downy [8, 29]: 95
- Plant response rating, Bromegrass, Downy [8, 30]: 100
- Plant response rating, Bromegrass, Downy [8, 19]: 100
- Plant response rating, Foxtail, Green [9, 24]: 100
- Plant response rating, Foxtail, Green [9, 25]: 100
- Plant response rating, Foxtail, Green [9, 26]: 100
- Plant response rating, Foxtail, Green [9, 31]: 100
- Plant response rating, Foxtail, Green [9, 28]: 90
- Plant response rating, Foxtail, Green [9, 29]: 90
- Plant response rating, Foxtail, Green [9, 30]: 90
- Plant response rating, Foxtail, Green [9, 19]: 90
- Plant response rating, Bermudagrass [10, 24]: 80
- Plant response rating, Bermudagrass [10, 25]: 80
- Plant response rating, Bermudagrass [10, 26]: 85
- Plant response rating, Bermudagrass [10, 27]: 90
- Plant response rating, Bermudagrass [10, 28]: 98
- Plant response rating, Bermudagrass [10, 29]: 98
- Plant response rating, Bermudagrass [10, 30]: 100
- Plant response rating, Bermudagrass [10, 19]: 100
- Plant response rating, Surinam Grass [11, 24]: 35
- Plant response rating, Surinam Grass [11, 25]: 70
- Plant response rating, Surinam Grass [11, 26]: 70
- Plant response rating, Surinam Grass [11, 31]: 75
- Plant response rating, Surinam Grass [11, 28]: 90
- Plant response rating, Surinam Grass [11, 29]: 98
- Plant response rating, Surinam Grass [11, 30]: 100
- Plant response rating, Surinam Grass [11, 19]: 100
- Plant response rating, Cupgrass, Woolly [12, 24]: 30
- Plant response rating, Cupgrass, Woolly [12, 25]: 80
- Plant response rating, Cupgrass, Woolly [12, 26]: 85
- Plant response rating, Cupgrass, Woolly [12, 27]: 90
- Plant response rating, Cupgrass, Woolly [12, 28]: 90
- Plant response rating, Cupgrass, Woolly [12, 29]: 98
- Plant response rating, Cupgrass, Woolly [12, 30]: 100
- Plant response rating, Cupgrass, Woolly [12, 19]: 100
- Plant response rating, Goosegrass [13, 24]: 75
- Plant response rating, Goosegrass [13, 25]: 75
- Plant response rating, Goosegrass [13, 26]: 80
- Plant response rating, Goosegrass [13, 31]: 85
- Plant response rating, Goosegrass [13, 28]: 100
- Plant response rating, Goosegrass [13, 29]: 100
- Plant response rating, Goosegrass [13, 30]: 100
- Plant response rating, Goosegrass [13, 19]: 100
- Plant response rating, Nightshade [14, 32]: 100
- Plant response rating, Nightshade [14, 33]: 100
- Plant response rating, Nightshade [14, 20]: 100
- Plant response rating, Nightshade [14, 34]: 100
- Plant response rating, Sunflower [15, 32]: 5
- Plant response rating, Sunflower [15, 33]: 20
- Plant response rating, Sunflower [15, 20]: 30
- Plant response rating, Sunflower [15, 34]: 40
- Plant response rating, Canarygrass [16, 21]: 80
- Plant response rating, Canarygrass [16, 22]: 90
- Plant response rating, Canarygrass [16, 20]: 90
- Plant response rating, Canarygrass ([16]; 250 g ai/ha, scale 0 to 100): 90
- Plant response rating, Windgrass [17, 21]: 80
- Plant response rating, Windgrass [17, 22]: 80
- Plant response rating, Windgrass [17, 20]: 95
- Plant response rating, Windgrass [17, 23]: 95
- Plant response rating, Deadnettle [18, 21]: 100
- Plant response rating, Deadnettle [18, 22]: 100
- Plant response rating, Deadnettle [18, 20]: 100
- Plant response rating, Deadnettle ([18]; 250 g ai/ha, scale 0 to 100): 100
